Target: T1, purified human HDAC6 (Homo sapiens, UniProt Q9UBN7)
T1 construct: purchased BPS Bioscience 5006
T1 sequence (Q9UBN7 1-1215): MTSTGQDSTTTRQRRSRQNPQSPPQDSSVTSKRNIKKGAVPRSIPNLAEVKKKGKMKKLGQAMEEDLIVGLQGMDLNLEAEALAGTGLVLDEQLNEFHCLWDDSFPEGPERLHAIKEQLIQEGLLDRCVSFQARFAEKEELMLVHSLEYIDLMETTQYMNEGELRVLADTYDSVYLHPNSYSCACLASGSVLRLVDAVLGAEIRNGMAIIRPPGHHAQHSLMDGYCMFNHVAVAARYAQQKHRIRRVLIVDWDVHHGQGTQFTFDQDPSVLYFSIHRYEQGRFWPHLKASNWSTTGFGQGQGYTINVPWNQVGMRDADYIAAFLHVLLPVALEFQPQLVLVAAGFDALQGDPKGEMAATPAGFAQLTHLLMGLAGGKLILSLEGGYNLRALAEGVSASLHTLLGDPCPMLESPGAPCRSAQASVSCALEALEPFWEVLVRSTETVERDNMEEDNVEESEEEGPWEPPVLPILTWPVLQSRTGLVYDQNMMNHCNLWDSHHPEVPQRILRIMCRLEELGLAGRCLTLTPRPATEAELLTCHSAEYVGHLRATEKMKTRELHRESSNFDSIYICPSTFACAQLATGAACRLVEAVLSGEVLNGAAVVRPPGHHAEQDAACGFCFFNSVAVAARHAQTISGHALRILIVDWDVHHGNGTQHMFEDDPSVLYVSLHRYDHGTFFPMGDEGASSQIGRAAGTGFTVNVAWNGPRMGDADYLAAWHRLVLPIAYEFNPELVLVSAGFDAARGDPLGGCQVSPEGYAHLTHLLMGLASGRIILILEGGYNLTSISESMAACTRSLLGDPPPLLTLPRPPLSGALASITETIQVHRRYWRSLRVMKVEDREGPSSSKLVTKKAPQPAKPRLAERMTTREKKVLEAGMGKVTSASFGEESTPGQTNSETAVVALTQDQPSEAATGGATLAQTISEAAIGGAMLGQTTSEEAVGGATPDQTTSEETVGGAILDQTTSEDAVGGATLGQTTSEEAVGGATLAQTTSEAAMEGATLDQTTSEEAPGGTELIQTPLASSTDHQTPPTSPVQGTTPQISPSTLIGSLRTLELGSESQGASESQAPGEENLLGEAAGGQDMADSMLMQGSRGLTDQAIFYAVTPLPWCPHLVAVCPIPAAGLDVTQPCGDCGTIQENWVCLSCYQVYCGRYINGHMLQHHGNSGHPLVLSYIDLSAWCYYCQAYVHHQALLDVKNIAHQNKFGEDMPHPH
Assay: HDAC6 Enzyme Assay
Assay type: biochemical
Settings: HDAC6 inhibition at a compound concentration of 0.412 μM; read-out: Percent Inhibition at 0.412 μM
Description: To measure the inhibition of HDAC6 activity, purified human HDAC6 (BPS Bioscience; Cat. No. 5006) is incubated with substrate Ac-Arg-Gly-Lys(Ac)-AMC peptide (Bachem Biosciences; Cat. No. I-1925) for 1 hour at 30° C. in the presence of test compounds or vehicle DMSO control. The reaction is stopped with the HDAC inhibitor trichostatin A (Sigma; Cat. No. T8552) and the amount of Arg-Gly-Lys-AMC generated is quantitated by digestion with trypsin (Sigma; Cat. No. T1426) and subsequent measurement of the amount of AMC released using a fluorescent plate reader (Pherastar; BMG Technologies) set at Ex 340 nm and Em 460 nm. Concentration response curves are generated by calculating the fluorescence increase in test compound-treated samples relative to DMSO-treated controls, and enzyme inhibition (IC50) values are determined from those curves.

SMILES	inhibition at 0.412 µM [%]
Cc1ccc(-c2cc(C(=O)N[C@H]3CCCc4cc(C(=O)NO)ccc43)[nH]n2)cc1 [Compound I-72, N-{(1S)-6-[(hydroxyamino)carbonyl]-1,2,3,4-tetrahydronaphthalen-1-yl}-3-(4-methylphenyl)-1H-pyrazole-5-carboxamide]	54
O=C(Cc1ccc(C(F)(F)F)cc1)NC1CCCc2cc(C(=O)NO)ccc21 (stereo not shown) [Compound I-10, N-hydroxy-5-({[4-(trifluoromethyl)phenyl]acetyl}amino)-5,6,7,8-tetrahydronaphthalene-2-carboxamide]	20
Cc1c(C(=O)NC2CCc3cc(C(=O)NO)ccc3C2)cc(-c2ccccc2)n1CCCN1CCOCC1 (stereo not shown) [Compound I-47, N-{6-[(hydroxyamino)carbonyl]-1,2,3,4-tetrahydronaphthalen-2-yl}-2-methyl-1-(3-morpholin-4-ylpropyl)-5-phenyl-1H-pyrrole-3-carboxamide]	82
O=C(NO)c1ccc2c(c1)CCC(NC(=O)C1CCCCC1)C2 (stereo not shown) [Compound I-49, 6-[(cyclohexylcarbonyl)amino]-N-hydroxy-5,6,7,8-tetrahydronaphthalene-2-carboxamide]	56
Cc1nc(C(F)(F)F)c(C(=O)NC2CCCc3cc(C(=O)NO)ccc32)s1 (stereo not shown) [Compound I-7, N-{6-[(hydroxyamino)carbonyl]-1,2,3,4-tetrahydronaphthalen-1-yl}-2-methyl-4-(trifluoromethyl)-1,3-thiazole-5-carboxamide]	22
CC1(C(=O)NC2CCc3ccc(C(=O)NO)cc3C2)CCNCC1 (stereo not shown) [Compound I-114, N-{7-[(hydroxyamino)carbonyl]-1,2,3,4-tetrahydronaphthalen-2-yl}-4-methylpiperidine-4-carboxamide]	82
O=C(NO)c1ccc2c(c1)CCCC2NC(=O)c1cc(-c2ccc(F)cc2)n[nH]1 (stereo not shown) [Compound I-43, 3-(4-fluorophenyl)-N-{6-[(hydroxyamino)carbonyl]-1,2,3,4-tetrahydronaphthalen-1-yl}-1H-pyrazole-5-carboxamide]	71
O=C(NO)c1ccc2c(c1)C1CCC2N1C(=O)c1ccc(-c2ccccc2)cc1 (stereo not shown) [Compound I-199, 9-(biphenyl-4-ylcarbonyl)-N-hydroxy-1,2,3,4-tetrahydro-1,4-epiminonaphthalene-6-carboxamide]	70
Cc1onc(-c2ccccc2Cl)c1C(=O)NC1CCCc2cc(C(=O)NO)ccc21 (stereo not shown) [Compound I-38, 3-(2-chlorophenyl)-N-{6-[(hydroxyamino)carbonyl]-1,2,3,4-tetrahydronaphthalen-1-yl}-5-methylisoxazole-4-carboxamide]	18
Cc1oc(S(=O)(=O)N2CCCC2)cc1C(=O)NC1CCCc2cc(C(=O)NO)ccc21 (stereo not shown) [Compound I-22, N-{6-[(hydroxyamino)carbonyl]-1,2,3,4-tetrahydronaphthalen-1-yl}-2-methyl-5-(pyrrolidin-1-ylsulfonyl)-3-furamide]	28
O=C(NO)c1ccc2c(c1)CC(c1cccc(C(F)(F)F)c1)CC2 (stereo not shown) [Compound I-115, N-hydroxy-7-[3-(trifluoromethyl)phenyl]-5,6,7,8-tetrahydronaphthalene-2-carboxamide]	81
O=C(NO)c1ccc2c(c1)CCCC2NC(=O)c1cn2cc(Cl)ccc2n1 (stereo not shown) [Compound I-29, 6-chloro-N-{6-[(hydroxyamino)carbonyl]-1,2,3,4-tetrahydronaphthalen-1-yl}imidazo[1,2-a]pyridine-2-carboxamide]	70
CCC(C)(C)C(=O)NC1CCCc2cc(C(=O)NO)ccc21 (stereo not shown) [Compound I-15, 5-[(2,2-dimethylbutanoyl)amino]-N-hydroxy-5,6,7,8-tetrahydronaphthalene-2-carboxamide]	11

The next lines start with the values.

inhibition at 0.412 µM [%]	SMILES
85	O=C(NO)c1ccc2c(c1)CCC(NC(=O)c1cnn(-c3ccccc3)c1)C2 (stereo not shown) [Compound I-58, N-{6-[(hydroxyamino)carbonyl]-1,2,3,4-tetrahydronaphthalen-2-yl}-1-phenyl-1H-pyrazole-4-carboxamide]
95	CCN1CCC(NC(=O)c2cc(OC3CCc4cc(C(=O)NO)ccc4C3)ccn2)CC1 (stereo not shown) [Compound I-227, N-(1-ethylpiperidin-4-yl)-4-({6-[(hydroxyamino)carbonyl]-1,2,3,4-tetrahydronaphthalen-2-yl}oxy)pyridine-2-carboxamide]
53	O=C(NO)c1ccc2c(c1)CCC(c1cccc(C(F)(F)F)c1)C2 (stereo not shown) [Compound I-113, N-hydroxy-6-[3-(trifluoromethyl)phenyl]-5,6,7,8-tetrahydronaphthalene-2-carboxamide]
88	CC(C)(C)OC(=O)N1CCC(NC(=O)c2cc(OC3CCc4cc(C(=O)NO)ccc4C3)ccn2)CC1 (stereo not shown) [Compound I-223, tert-butyl 4-({[4-({6-[(hydroxyamino)carbonyl]-1,2,3,4-tetrahydronaphthalen-2-yl}oxy)pyridin-2-yl]carbonyl}amino)piperidine-1-carboxylate]
81	COc1ccccc1C1CCc2ccc(C(=O)NO)cc2C1 (stereo not shown) [Compound I-116, N-hydroxy-7-(2-methoxyphenyl)-5,6,7,8-tetrahydronaphthalene-2-carboxamide]
16	Cn1cccc1C(=O)N[C@@H]1CCCc2cc(C(=O)NO)ccc21 [Compound I-65, (R)-N-(6-(hydroxycarbamoyl)-1,2,3,4-tetrahydronaphthalen-1-yl)-1-methyl-1H-pyrrole-2-carboxamide]
96	O=C(Nc1ccccc1)NC1CCc2ccc(C(=O)NO)cc2C1 (stereo not shown) [Compound I-94, 7-[(anilinocarbonyl)amino]-N-hydroxy-5,6,7,8-tetrahydronaphthalene-2-carboxamide]
85	CC(=O)Nc1cccc(C2CCc3cc(C(=O)NO)ccc3C2)c1 (stereo not shown) [Compound I-102, 6-[3-(acetylamino)phenyl]-N-hydroxy-5,6,7,8-tetrahydronaphthalene-2-carboxamide]
93	CCN(CC)CCNC(=O)c1cc(OC2CCc3cc(C(=O)NO)ccc3C2)ccn1 (stereo not shown) [Compound I-226, N-[2-(diethylamino)ethyl]-4-({6-[(hydroxyamino)carbonyl]-1,2,3,4-tetrahydronaphthalen-2-yl}oxy)pyridine-2-carboxamide]
92	O=C(NO)c1ccc2c(c1)CCC(Oc1ccccc1)C2 (stereo not shown) [Compound I-229, N-hydroxy-6-phenoxy-5,6,7,8-tetrahydronaphthalene-2-carboxamide]
34	Cn1cccc1C(=O)NC1CCCc2cc(C(=O)NO)ccc21 (stereo not shown) [Compound I-18, N-{6-[(hydroxyamino)carbonyl]-1,2,3,4-tetrahydronaphthalen-1-yl}-1-methyl-1H-pyrrole-2-carboxamide]
93	Nc1cc(C2CCc3ccc(C(=O)NO)cc3C2)ncn1 (stereo not shown) [Compound I-98, 7-(6-aminopyrimidin-4-yl)-N-hydroxy-5,6,7,8-tetrahydronaphthalene-2-carboxamide]
87	O=C(NO)c1ccc2c(c1)CCC(NC(=O)c1ccc3occc3c1)C2 (stereo not shown) [Compound I-54, N-{6-[(hydroxyamino)carbonyl]-1,2,3,4-tetrahydronaphthalen-2-yl}-1-benzofuran-5-carboxamide]
69	CN(C)Cc1cccc(C2CCc3cc(C(=O)NO)ccc3C2)c1 (stereo not shown) [Compound I-183, 6-{3-[(dimethylamino)methyl]phenyl}-N-hydroxy-5,6,7,8-tetrahydronaphthalene-2-carboxamide]
71	O=C(NO)c1ccc2c(c1)CC(Nc1ccncc1)CC2 (stereo not shown) [Compound I-95, N-hydroxy-7-(pyridin-4-ylamino)-5,6,7,8-tetrahydronaphthalene-2-carboxamide]

Source: US20140243335A1, “SUBSTITUTED HYDOXAMIC ACIDS AND USES THEREOF” (Millennium Pharmaceuticals, Inc., priority 2010, published 2014)
